This passage reports IC50 results from patent publication US20210309677A1, “NOVEL AMINOPHOSPHINIC DERIVATIVES AS AMINOPEPTIDASE A INHIBITORS” (QUANTUM GENOMICS, priority 2018, published 2021).

What is called IC50 is the concentration that gives 50% inhibition.

The experiment has as its target T1, recombinant mouse APA (Mus musculus, UniProt P16406).
T1 sequence (P16406 1-945): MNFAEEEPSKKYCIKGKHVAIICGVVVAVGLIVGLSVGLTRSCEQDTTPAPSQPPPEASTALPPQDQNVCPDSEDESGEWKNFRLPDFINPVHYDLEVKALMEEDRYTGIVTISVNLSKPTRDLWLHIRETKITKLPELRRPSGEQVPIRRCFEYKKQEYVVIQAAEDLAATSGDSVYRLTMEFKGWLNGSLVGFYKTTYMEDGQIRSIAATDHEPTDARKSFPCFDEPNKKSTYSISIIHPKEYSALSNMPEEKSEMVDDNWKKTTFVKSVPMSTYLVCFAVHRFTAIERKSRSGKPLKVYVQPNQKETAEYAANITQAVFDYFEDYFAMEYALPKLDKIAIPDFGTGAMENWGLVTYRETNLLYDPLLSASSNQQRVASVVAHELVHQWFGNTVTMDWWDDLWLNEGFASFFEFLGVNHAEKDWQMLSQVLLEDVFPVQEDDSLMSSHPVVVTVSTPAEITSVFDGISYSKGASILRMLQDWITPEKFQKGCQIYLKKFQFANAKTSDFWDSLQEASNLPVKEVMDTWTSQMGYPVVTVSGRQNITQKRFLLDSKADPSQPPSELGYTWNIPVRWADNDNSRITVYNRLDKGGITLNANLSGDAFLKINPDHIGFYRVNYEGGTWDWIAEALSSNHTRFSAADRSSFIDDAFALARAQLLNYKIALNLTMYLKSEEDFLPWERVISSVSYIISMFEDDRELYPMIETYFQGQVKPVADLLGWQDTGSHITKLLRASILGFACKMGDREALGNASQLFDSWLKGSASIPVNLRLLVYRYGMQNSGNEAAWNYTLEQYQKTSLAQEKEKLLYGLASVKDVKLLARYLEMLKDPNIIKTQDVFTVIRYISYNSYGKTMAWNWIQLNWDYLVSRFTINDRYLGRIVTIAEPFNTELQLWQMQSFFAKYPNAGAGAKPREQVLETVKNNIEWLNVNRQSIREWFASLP
The experiment can be described thus: Measurement of APA activity in vitro (hydrolysis of GluβNa, colorimetric). The experiment is classed as biochemical. As to conditions: 200 μM Glu-βNa, pH 7.4, 37° C., 4 mM CaCl2, read-out: In vitro inhibition of aminopeptidase A, IC50 classification. The text has this:
Measurement of APA activity in vitro is based on the protocol of Goldbarg adjusted to the scale of assaying on microplates (Pro Bind™ 3915) (Chauvel et al., 1994). In vitro, in the presence of calcium ions, APA hydrolyses a synthetic substrate α-L-glutamyl-β-naphthylamide (GluβNa) to glutamate and β-naphthylamine ((βNa). A diazotation reaction in acidic medium makes it possible to reveal the β-naphthylamine by formation of a violet-coloured complex: spectrophotometric measurement then makes it possible to know the amount of complex formed and, by reference to a standard curve produced with increasing concentrations of β-naphthylamine, to deduce the enzymatic activity of the sample.
The Glu-βNa substrate (Bachem) and the β-naphthylamine (Sigma) are dissolved in 50% DMSO (dimethyl sulphoxide) and 0.1 N HCl respectively, and conserved at −20° C. at a concentration of 10^−2 M. The diazotation reaction is carried out in the presence of sodium nitrite (87 mM), ammonium sulfamate (130 mM) and N-(1-naphthyl)-ethylenediamine dihydrochloride (23 mM in 95% ethanol).
The reaction takes place at pH 7.4 in 50 mM tris-HCl buffer, in the presence of calcium (4 mM CaCl2); recombinant mouse APA is incubated at 37° C. in the presence of the substrate (200 μM Glu-βNa) and in the presence or absence of various concentrations of the inhibitor to be tested, in a final volume of 100 μL. The reaction is stopped by adding 10 μL, of 3N HCl. A standard curve of β-naphthylamine was prepared in parallel by diazotizing increasing concentrations (up to 0.2 mM) of 2-naphthylamine in 0.1 N HCl.
The following are added to each well: 25 μL of sodium nitrite (NaNO2) (mix, wait 5 minutes at room temperature), 50 μI, of ammonium sulfamate (mix, wait 5 minutes at room temperature), then add 25 μL of N-(1-naphthyl) ethylenediamine dihydrochloride (mix, wait for stabilization of the violet colour for approximately 30 minutes at 37° C.). The absorbance is then measured at 540 nm.
The compound EC33 ((S)-3 amino-4-mercapto-butylsulfonic acid) described in application WO 99/36066 was used as a reference compound.
For the compound `N[C@H](CS)CCS(=O)(=O)O` [EC33, (S)-3 amino-4-mercapto-butylsulfonic acid, reference compound], the IC50 is 300 to 10000 nM. Turning to `CC(C)CCP(=O)(O)C(N)CCC(=O)O` (centres unmarked) [Example 1, 4-amino-4-[hydroxy(3-methylbutyl)phosphoryl]butanoic acid], the IC50 was 30 to 300 nM. With `CC(C)CCCP(=O)(O)C(N)CCC(=O)O` (centres unmarked) [Example 2, 4-amino-4-[hydroxy(4-methylpentyl)phosphoryl]butanoic acid], the IC50 fell in the range of 30 to 300 nM.

In the case of `CC(C)CCCCP(=O)(O)C(N)CCC(=O)O` (centres unmarked) [Example 3, 4-amino-4-[hydroxy(5-methylhexyl)phosphoryl]butanoic acid], the IC50 lay within 30 to 300 nM.

As to `CCCCCP(=O)(O)C(N)CCC(=O)O` (centres unmarked) [Example 4, 4-amino-4-[hydroxy(pentyl)phosphoryl]butanoic acid], the IC50 is 30 to 300 nM.

`CCCCCCP(=O)(O)C(N)CCC(=O)O` (centres unmarked) [Example 5, 4-amino-4-[hexyl(hydroxy)phosphoryl]butanoic acid]: the IC50 lay within 30 to 300 nM. Consider `NC(CCC(=O)O)P(=O)(O)CCCC(F)(F)F` (centres unmarked) [Example 6, 4-amino-4-[hydroxy(4,4,4-trifluorobutyl)phosphoryl]butanoic acid], for which the IC50 was 30 to 300 nM. On to `NC(CCC(=O)O)P(=O)(O)CCC1CCCCC1` (centres unmarked) [Example 7, 4-amino-4-[(2-cyclohexylethyl)(hydroxy)phosphoryl]butanoic acid], for which the IC50 is 30 to 300 nM. Next, `NC(CCC(=O)O)P(=O)(O)CC1CCC1` (centres unmarked) [Example 8, 4-amino-4-[(cyclobutylmethyl)(hydroxy)phosphoryl]butanoic acid]: less than 30 nM. As to `NC(CCC(=O)O)P(=O)(O)CC1CCCC1` (centres unmarked) [Example 9, 4-amino-4-[(cyclopentylmethyl)(hydroxy)phosphoryl]butanoic acid], the IC50 was less than 30 nM.

Regarding `NC(CCC(=O)O)P(=O)(O)CC1CCCCC1` (centres unmarked) [Example 10, 4-amino-4-[(cyclohexylmethyl)(hydroxy)phosphoryl]butanoic acid], the IC50 was less than 30 nM.
